molecular target: C-C chemokine receptor type 2 (Homo sapiens, UniProt P41597); assay: Antagonist activity at human CCR2b receptor; format: functional; conditions: read-out: IC50
Sequence (P41597 whole entry): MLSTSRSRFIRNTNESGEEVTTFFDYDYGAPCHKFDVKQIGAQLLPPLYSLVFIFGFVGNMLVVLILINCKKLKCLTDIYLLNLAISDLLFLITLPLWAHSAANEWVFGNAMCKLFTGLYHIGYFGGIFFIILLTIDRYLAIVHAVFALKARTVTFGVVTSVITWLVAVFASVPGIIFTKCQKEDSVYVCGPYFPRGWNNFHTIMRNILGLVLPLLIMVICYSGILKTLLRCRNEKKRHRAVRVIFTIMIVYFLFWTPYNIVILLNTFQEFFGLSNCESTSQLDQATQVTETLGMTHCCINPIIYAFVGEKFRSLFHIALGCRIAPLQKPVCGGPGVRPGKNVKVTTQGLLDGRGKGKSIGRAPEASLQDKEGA

**Q.** With `O=C(NCc1cc(C(F)(F)F)cc(C(F)(F)F)c1)C(CCN1CCC2(C=Cc3ccccc32)CC1)C1CC1` (configuration not stated) as the molecule, how does the IC50 read?
**A.** Its IC50 is 98 nM.

**Q.** With `C[C@H]1CN([C@@H]2CC[C@](CC3CCC3)(C(=O)NCc3cc(C(F)(F)F)cc(C(F)(F)F)c3)C2)CC[C@]12C=Cc1ccccc12` as the molecule, how does the IC50 read?
**A.** Its IC50 is 19 nM.

**Q.** How did the IC50 turn out when `C[C@H]1CN([C@@H]2CC[C@H](C(=O)NCc3cc(C(F)(F)F)cc(C(F)(F)F)c3)C2)CC[C@]12C=Cc1ccccc12` was run?
**A.** The IC50 was 20 nM.

**Q.** How did the IC50 turn out when `C[C@H]1CN([C@@H]2CC[C@](C)(C(=O)NCc3cc(C(F)(F)F)cc(C(F)(F)F)c3)C2)CC[C@]12C=Cc1ccccc12` was run?
**A.** Its IC50 is 9 nM.

**Q.** How did the IC50 turn out when `CC(C)[C@]1(C(=O)NCc2cc(C(F)(F)F)cc(C(F)(F)F)c2)CC[C@@H](N2CC[C@]3(C=Cc4ccccc43)[C@@H](C)C2)C1` was run?
**A.** Its IC50 is 7.6 nM.

**Q.** With `C[C@H]1CN([C@@H]2CC[C@](C)(C(=O)NCc3cc(F)cc(C(F)(F)F)c3)C2)CC[C@]12C=Cc1ccccc12` as the molecule, how does the IC50 read?
**A.** The IC50 was 4 nM.

**Q.** `CSC[C@]1(C(=O)NCc2cc(C(F)(F)F)cc(C(F)(F)F)c2)CC[C@@H](N2CC[C@]3(C=Cc4ccccc43)[C@@H](C)C2)C1` was tested. Which IC50 did it give?
**A.** The IC50 was 13 nM.

**Q.** With `CC(C)[C@]1(C(=O)NCc2cc(F)cc(C(F)(F)F)c2)CC[C@@H](N2CC[C@]3(C=Cc4ccccc43)[C@@H](C)C2)C1` as the molecule, how does the IC50 read?
**A.** Its IC50 is 3.1 nM.

**Q.** `CC(C)C[C@]1(C(=O)NCc2cc(F)cc(C(F)(F)F)c2)CC[C@@H](N2CC[C@]3(C=Cc4ccccc43)[C@@H](C)C2)C1` was tested. Which IC50 did it give?
**A.** The IC50 was 3.9 nM.

**Q.** `CSC[C@]1(C(=O)NCc2cc(F)cc(C(F)(F)F)c2)CC[C@@H](N2CC[C@]3(C=Cc4ccccc43)[C@@H](C)C2)C1` was tested. Which IC50 did it give?
**A.** Its IC50 is 3.5 nM.

**Q.** With `CS[C@]1(C(=O)NCc2cc(F)cc(C(F)(F)F)c2)CC[C@@H](N2CC[C@]3(C=Cc4ccccc43)[C@@H](C)C2)C1` as the molecule, how does the IC50 read?
**A.** The IC50 was 67 nM.

**Q.** For `CC(CCN1CCC2(C=Cc3ccccc32)CC1)C(=O)NCc1cc(C(F)(F)F)cc(C(F)(F)F)c1` (configuration not stated), which IC50 is on record?
**A.** Its IC50 is 231 nM.

**Q.** Which IC50 does the source give for `C=CCC(CCN1CCC2(C=Cc3ccccc32)CC1)C(=O)NCc1cc(C(F)(F)F)cc(C(F)(F)F)c1` (configuration not stated) here?
**A.** The IC50 was 193 nM.

**Q.** `C[C@H]1CN(CCC(C(=O)NCc2cc(C(F)(F)F)cc(C(F)(F)F)c2)C2CC2)CC[C@@]12C=Cc1ccccc12` (some centres not stated) was tested. Which IC50 did it give?
**A.** The IC50 was 14 nM.

**Q.** With `C[C@H]1CN(CCC(C(=O)NCc2cc(C(F)(F)F)cc(C(F)(F)F)c2)C2CCC2)CC[C@@]12C=Cc1ccccc12` (some centres not stated) as the molecule, how does the IC50 read?
**A.** The IC50 was 28 nM.

**Q.** Which IC50 does the source give for `O=C(NCc1cc(C(F)(F)F)cc(C(F)(F)F)c1)C(CCN1CCC(c2ccc(F)cc2)CC1)C1CC1` (configuration not stated) here?
**A.** The IC50 was 280 nM.

**Q.** With `O=C(NCc1cc(C(F)(F)F)cc(C(F)(F)F)c1)C(CCN1CCC(c2ccccc2)CC1)C1CC1` (configuration not stated) as the molecule, how does the IC50 read?
**A.** The IC50 was 285 nM.

**Q.** With `CCCC(CCN1CCC(c2ccccc2)CC1)C(=O)NCc1cc(C(F)(F)F)cc(C(F)(F)F)c1` (configuration not stated) as the molecule, how does the IC50 read?
**A.** Its IC50 is 126 nM.

**Q.** Which IC50 does the source give for `CCC[C@]1(C(=O)NCc2cc(C(F)(F)F)cc(C(F)(F)F)c2)CC[C@@H](N2CC[C@]3(C=Cc4ccccc43)[C@@H](C)C2)C1` here?
**A.** The IC50 was 16 nM.

**Q.** Which IC50 does the source give for `CS[C@]1(C(=O)NCc2cc(C(F)(F)F)cc(C(F)(F)F)c2)CC[C@@H](N2CC[C@]3(C=Cc4ccccc43)[C@@H](C)C2)C1` here?
**A.** The IC50 was 28 nM.

**Q.** For `CC(C)C[C@]1(C(=O)NCc2cc(C(F)(F)F)cc(C(F)(F)F)c2)CC[C@@H](N2CC[C@]3(C=Cc4ccccc43)[C@@H](C)C2)C1`, which IC50 is on record?
**A.** Its IC50 is 8 nM.

**Q.** How did the IC50 turn out when `C=CCC(CCN1CCC(c2ccccc2)CC1)C(=O)NCc1cc(C(F)(F)F)cc(C(F)(F)F)c1` (configuration not stated) was run?
**A.** Its IC50 is 642 nM.

**Q.** With `CC(C)C(CCN1CCC2(C=Cc3ccccc32)CC1)C(=O)NCc1cc(C(F)(F)F)cc(C(F)(F)F)c1` (configuration not stated) as the molecule, how does the IC50 read?
**A.** Its IC50 is 204 nM.

**Q.** Which IC50 does the source give for `C[C@H]1CN(CCC(CC2CC2)C(=O)NCc2cc(C(F)(F)F)cc(C(F)(F)F)c2)CC[C@@]12C=Cc1ccccc12` (some centres not stated) here?
**A.** The IC50 was 25 nM.

**Q.** With `Nc1nc([C@@H](CCN2CCC(c3ccccc3)CC2)C(=O)NCc2cc(C(F)(F)F)cc(C(F)(F)F)c2)cs1` as the molecule, how does the IC50 read?
**A.** The IC50 was 229 nM.

**Q.** `C[C@H]1CN([C@@H]2CC[C@@](C(=O)NCc3cc(F)cc(C(F)(F)F)c3)(C3CC3)C2)CC[C@]12C=Cc1ccccc12` was tested. Which IC50 did it give?
**A.** Its IC50 is 1.9 nM.

same assay, conditions: read-out: Log IC50 (converted)

**Q.** For `O=C(NCc1cc(C(F)(F)F)cc(C(F)(F)F)c1)[C@@H](NCCN1CCC(c2ccccc2)CC1)c1ccccc1`, which IC50 is on record?
**A.** The IC50 was 832 nM.
